# Experimental data: US20100203125A1, “SYNERGISTIC ANTIBACTERIAL FORMULATION AND A METHOD OF MAKING THE SAME” (priority 2004, published 2010)
# Read-outs that look alike come from different tables or passages of the source.
# Experiments:
# [1] = in vivo, cited from earlier work; for Bioavailability after oral administration / Serum half-life / half life: human
# plasma proteins = settings: cited from earlier work
# [2] = Clinical Trial 2, comparative plasma concentration study; settings: for Plasma concentration from the formulation compared with conventional separate dosing: human, in vivo
# Procedure: Comparative studies were conducted on 24 healthy male patients who were pre-tested for non-allergic conditions against Betalactam and Cephalsporin antibiotics.
# [3] = Plasma concentration levels of cefixime and dicloxacillin formulation (Table 4); settings: in vivo
# [4] = in vivo; cited from earlier work
# [5] = cited from earlier work
# Streptococcus pyogenes = settings: cited from earlier work
# [6] = tested on: Staphylococcus epidermidis; settings: cited from earlier work
# Streptococcus pneumoniae = settings: cited from earlier work
# Neisseria gonorrhoeae = settings: cited from earlier work
# Staphylococcus aureus = settings: cited from earlier work
# E. coli [C1] = experiment: Zone of inhibition study; type: cell-based; settings: 37° C. 24 hours, excluding well diameter
# Procedure: (§1) Quantitative methods of susceptibility testing that require measurements of zone diameters give the most precise estimates of antibiotic susceptibility. Zone of inhibition study was performed Cefixime and dicloxacillin combination with suitable concentration and compare with the zone of inhibition of individual antibiotic to study the synergy. Nutrient Agar plates (duplicate sets) were used for inoculation of microorganism culture using spread plate technique. Wells of 6.0 mm diameter were made in agar plate and test and standard antibiotics preparations were placed in the respective wells. Suitable control plates and plates with no antibiotics were simultaneously then inoculated after appropriate dilution on separate nutrient agar plates (duplicate sets) using spread plate technique. […] All the diameters [zone of inhibition] were measure excluding the well diameter. Four species of bacteria namely E. coli [C1], S. aureus [C2], Salmonella typhimurium [C3], and S. epidermidis [C4] were selected for zone of inhibition study. […] There was no zone of inhibitions found for control plates.
# [7] = tested on: Salmonella typhimurium [C3]; experiment: Zone of inhibition study; type: cell-based; settings: 37° C. 24 hours, excluding well diameter
# Procedure: as §1
# S. aureus [C2] = experiment: Zone of inhibition study; type: cell-based; settings: 37° C. 24 hours, excluding well diameter
# Procedure: as §1
# S. epidermidis [C4] = experiment: Zone of inhibition study; type: cell-based; settings: 37° C. 24 hours, excluding well diameter
# Procedure: as §1
smiles,measurement,setting,value
C=CC1=C(C(=O)O)N2C(=O)[C@@H](NC(=O)/C(=N\OCC(=O)O)c3csc(N)n3)[C@H]2SC1 [Cefixime],Oral absorption,[1]; po,50%
same,Oral dose absorbed from the gastrointestinal tract,[1]; po,40-50%
same,Eliminated by nonrenal mechanisms,[1],Up to 60%
same,Plasma half-life,[1],180 min
same,Urinary Excretion,[1],34-48%
same,Vol Distribution,[1],0.30 ± 0.03
same,Plasma protein binding,plasma proteins; Table 1,60-70%
same,Plasma concentration from the formulation compared with conventional separate dosing,[2],better
same,Blood plasma conc,"[2]; separate tablets (Cloxacillin 250 mg × 2, Cefixime 200 mg), 1 hrs",0.46
same,Blood plasma conc,"[2]; separate tablets (Cloxacillin 250 mg × 2, Cefixime 200 mg), 2 hrs",1.23
same,Blood plasma conc,"[2]; separate tablets (Cloxacillin 250 mg × 2, Cefixime 200 mg), 3 hrs",1.52
same,Blood plasma conc,"[2]; separate tablets (Cloxacillin 250 mg × 2, Cefixime 200 mg), 4 hrs",1.79
same,Blood plasma conc,"[2]; separate tablets (Cloxacillin 250 mg × 2, Cefixime 200 mg), 6 hrs",1.14
same,Blood plasma conc,"[2]; separate tablets (Cloxacillin 250 mg × 2, Cefixime 200 mg), 8 hrs",0.88
same,Blood plasma conc,"[2]; separate tablets (Cloxacillin 250 mg × 2, Cefixime 200 mg), 9 hrs",0.72
same,Blood plasma conc,"[2]; separate tablets (Cloxacillin 250 mg × 2, Cefixime 200 mg), 10 hrs",0.6
same,Blood plasma conc,"[2]; separate tablets (Cloxacillin 250 mg × 2, Cefixime 200 mg), 12 hrs",0.5
same,Blood plasma conc,"[2]; separate tablets (Cloxacillin 250 mg × 2, Cefixime 200 mg), 14 hrs",0.36
same,Blood plasma conc,"[2]; separate tablets (Cloxacillin 250 mg × 2, Cefixime 200 mg), 16 hrs",0.2
same,Blood plasma conc,"[2]; separate tablets (Cloxacillin 250 mg × 2 at 6 hour interval, Cefixime 200 mg), 0 hrs, average of 24",0
same,Blood plasma conc,"[2]; synergetic formulation (Cloxacillin 500 mg, Cefixime in combination), 0 hrs, average of 24",0
same,Blood plasma conc,"[2]; synergetic formulation (Cloxacillin 500 mg, Cefixime in combination), 1 hrs",0.7
same,Blood plasma conc,"[2]; synergetic formulation (Cloxacillin 500 mg, Cefixime in combination), 2 hrs",1.4
same,Blood plasma conc,"[2]; synergetic formulation (Cloxacillin 500 mg, Cefixime in combination), 3 hrs",1.58
same,Blood plasma conc,"[2]; synergetic formulation (Cloxacillin 500 mg, Cefixime in combination), 4 hrs",2.01
same,Blood plasma conc,"[2]; synergetic formulation (Cloxacillin 500 mg, Cefixime in combination), 6 hrs",1.52
same,Blood plasma conc,"[2]; synergetic formulation (Cloxacillin 500 mg, Cefixime in combination), 8 hrs",1.03
same,Blood plasma conc,"[2]; synergetic formulation (Cloxacillin 500 mg, Cefixime in combination), 9 hrs",0.91
same,Blood plasma conc,"[2]; synergetic formulation (Cloxacillin 500 mg, Cefixime in combination), 10 hrs",0.72
same,Blood plasma conc,"[2]; synergetic formulation (Cloxacillin 500 mg, Cefixime in combination), 12 hrs",0.6
same,Blood plasma conc,"[2]; synergetic formulation (Cloxacillin 500 mg, Cefixime in combination), 14 hrs",0.34
same,Blood plasma conc,"[2]; synergetic formulation (Cloxacillin 500 mg, Cefixime in combination), 16 hrs",0.18
same,concentration at 0 h,[3],0 ng/mL
same,concentration at 0.5 h,[3],360 ng/mL
same,concentration at 1 h,[3],520 ng/mL
same,concentration at 2 h,[3],1340 ng/mL
same,concentration at 3 h,[3],1620 ng/mL
same,concentration at 4 h,[3],1840 ng/mL
same,concentration at 6 h,[3],1560 ng/mL
same,concentration at 8 h,[3],980 ng/mL
same,concentration at 10 h,[3],600 ng/mL
same,concentration at 12 h,[3],500 ng/mL
same,concentration at 14 h,[3],350 ng/mL
same,concentration at 16 h,[3],200 ng/mL
same,concentration at 20 h,[3],0 ng/mL
same,concentration at 24 h,[3],0 ng/mL
same,Acute toxicity,[4],negligibly low
same,Solubility in dehydrated alcohol,[5],sparingly soluble
same,Solubility in ethyl acetate,[5],practically insoluble
same,Solubility in methyl alcohol,[5],freely soluble
same,Solubility in water,[5],slightly soluble
"Cc1onc(-c2ccccc2Cl)c1C(=O)N[C@@H]1C(=O)N2[C@@H]1SC(C)(C)[C@@H]2C(=O)O [Cloxacillin sodium, chlorphenylmethyl isoxazolyl penicillin sodium]",Bioavailability after oral administration,[1]; po,37-60%
Cc1onc(-c2ccccc2Cl)c1C(=O)N[C@@H]1C(=O)N2[C@@H]1SC(C)(C)[C@@H]2C(=O)O [Cloxacillin],MIC90,Streptococcus pyogenes,0.1 µg/mL
same,MIC90,[6],0.1 µg/mL
same,Serum half-life / half life,[1],24 to 48 min
same,Urinary clearance rate,[1]; iv,162.2 mL/min
same,Cmax,[1],8000 ng/mL
same,Half life,[1],38 min
same,Plasma half life,[1],0.5 h-0.65
same,Plasma half-life,[1],30 to 90 min
same,Plasma protein binding,plasma proteins; plasma,93-95%
same,Plasma concentration from the formulation compared with conventional separate dosing,[2],significantly better plasma concentration
same,MIC90,Streptococcus pneumoniae,0.25 µg/mL
same,MIC90,Neisseria gonorrhoeae,0.1 µg/mL
same,MIC90,Staphylococcus aureus,0.1 µg/mL
Cc1onc(-c2c(Cl)cccc2Cl)c1C(=O)N[C@@H]1C(=O)N2[C@@H]1SC(C)(C)[C@@H]2C(=O)O [Dicloxacillin],concentration at 0 h,in vivo,0 ng/mL
same,concentration at 0.5 h,in vivo,700 ng/mL
same,concentration at 1 h,in vivo,810 ng/mL
same,concentration at 2 h,in vivo,2260 ng/mL
same,concentration at 3 h,in vivo,3100 ng/mL
same,concentration at 4 h,in vivo,3940 ng/mL
same,concentration at 6 h,in vivo,4100 ng/mL
same,concentration at 8 h,in vivo,2960 ng/mL
same,concentration at 10 h,in vivo,2400 ng/mL
same,concentration at 12 h,in vivo,1380 ng/mL
same,concentration at 14 h,in vivo,630 ng/mL
same,concentration at 16 h,in vivo,300 ng/mL
same,concentration at 20 h,in vivo,0 ng/mL
same,concentration at 24 h,in vivo,0 ng/mL
same,Bioavailability after oral administration,[1]; po,60-80%
same,Oral absorption,[1]; po,60-80%
same,Excreted into the urine,[1],about 60%
same,Plasma half life,[1],0.5 to 1 h
same,Plasma half-life,[1],30 to 90 min
same,Urinary Excretion,[1],60%
same,Vol Distribution,[1],0.1 mL/g
same,Volume of distribution,[1],0.1 mL/g
same,Bound to plasma proteins,plasma proteins; plasma,90-98%
same,Plasma protein binding,plasma proteins; plasma,90-98%
same,Zone of inhibition,E. coli [C1],9 mm
same,Zone of inhibition,[7],10 mm
same,Zone of inhibition,S. aureus [C2],15 mm
same,Zone of inhibition,S. epidermidis [C4],15 mm
Cc1onc(-c2ccccc2)c1C(=O)NC1C(=O)N2[C@@H]1SC(C)(C)[C@@H]2C(=O)[O-].[Na+] (stereo partly drawn) [Oxacillin sodium],Bioavailability after oral administration,[1]; po,30-35%
Cc1onc(-c2ccccc2)c1C(=O)N[C@@H]1C(=O)N2[C@@H]1SC(C)(C)[C@@H]2C(=O)O [oxacillin],Serum half-life / half life,[1],18 to 48 min
same,Bound to plasma proteins,plasma proteins; plasma,89-94%
